From patent US10245249B2, “Pharmaceutical compositions comprising nitroxyl donors” (Cardioxyl Pharmaceuticals, Inc., priority 2013, dated 2019)

assay: HNO production determined via N2O quantification (GC headspace analysis); format: physicochemical; conditions: PBS, 37° C., 90 minutes incubation
Excerpt: Nitrous oxide (N2O) is produced via the dimerization and dehydration of HNO, and is the most common marker for nitroxyl production (Fukuto et al., Chem. Res. Toxicol. 18:790-801 (2005)). […] Using either nitrous oxide gas or Angeli's salt (AS) as a standard, the relative amounts of N2O released from compounds of the disclosure was examined via gas chromatography (GC) headspace analysis.
A procedure for determining the relative amounts of N2O released from compounds of the disclosure is as follows. GC was performed on an Agilent gas chromatograph equipped with a split injector (10:1 splitting), microelectron capture detector, and a HP-MOLSIV 30 m×0.32 mm×25 μm molecular sieve capillary column. Helium was used as the carrier (4 mL/min) gas and nitrogen was used as the make-up (20 mL/min) gas. The injector oven and the detector oven were kept at 200° C. and 325° C., respectively. All nitrous oxide analyses were performed with the column oven held at a constant temperature of 200° C.
All gas injections were made using an automated headspace analyzer. Vial pressurization was 15 psi. The analyzer's sample oven, sampling valve, and transfer line were kept at 40° C., 45° C., and 50° C., respectively. The oven stabilization, vial pressurization, loop fill, loop equilibration, and sample injection times were 1.00 min., 0.20 min., 0.20 min., 0.05 min., and 1.00 min., respectively.
All determinations used a batch of nominal 20 mL headspace vials with volumes pre-measured for sample uniformity (actual vial volume varied by <2.0% relative standard deviation (n=6)). The average vial volume for the batch was determined from six randomly-selected vials by calculating the weight difference between the capped and sealed empty (i.e., air-filled) vial and the capped and sealed deionized water-filled vial using the known density of deionized water, then averaging. Blanks were prepared by sealing and capping two vials then purging each for 20 seconds with a gentle argon stream. Nitroxyl standards were prepared by sealing and capping four vials then purging each for 1 minute with a gentle stream, from a gas cylinder, of a 3000 ppm […].
CXL-1020 (N-hydroxy-2-methanesulfonylbenzene-1-sulfonamide) “standards” were prepared by, in duplicate, accurately weighing 10±0.5 mg of CXL-1020 and adding it to each 4 mL vial. Using an auto pipette, 1 mL of argon-purged anhydrous DMF (Sigma-Aldrich) was added to each 4 mL vial to form a CXL-1020 stock solution for each sample and the vials were capped and shaken and/or sonicated to insure complete dissolution upon visual observation. Using an auto pipette, 20 mL vials were charged with 5 mL of PBS (purged for at least 30 min. with argon prior to use), purged with argon for at least 20 sec., and sealed with a rubber septum. Using a 50 μL syringe, 50 μL of the CXL-1020 stock solution was injected into each 20 mL vial containing the PBS.
Samples were prepared as follows. In duplicate, 18±1 mg of each sample was accurately weighed into each 4 mL vial. Using an auto pipette, 1 mL of argon-purged anhydrous DMF was added to each 4 mL vial to form a sample stock solution for each sample and the vials were capped and shaken and/or sonicated to insure complete sample dissolution upon visual observation. Using an auto pipette, 20 mL vials were charged with 5 mL of PBS (purged for at least 30 min. with argon prior to use), purged with argon for at least 20 sec., and sealed with a rubber septum. The vials were equilibrated for at least 10 min. at 37° C. in a dry block heater. Thereafter, using a 50 μL syringe, 50 μL of a sample stock solution was injected into each 20 mL vial containing the PBS. The vials were then held at 37° C. in the dry block heater for a time period such that the sum of the time spent in the dry block heater plus the time spent in the automated headspace analyzer oven before sample injection equaled the desired incubation time. […]

SMILES	Relative N2O Yield (90 minutes incubation) [%]
O=S(=O)(NO)c1coc2ccccc12 [Compound 6, N-Hydroxy-1-benzofuran-3-sulfonamide]	85
O=S(=O)(NO)c1ncccc1Br [Compound 33, 3-Bromo-N-hydroxypyridine-2-sulfonamide]	85.5
NS(=O)(=O)c1cc(S(=O)(=O)NO)cs1 [Compound 34, 4-N-Hydroxythiophene-2,4-disulfonamide]	100
O=S(=O)(NO)c1ccc(-c2cc(C(F)(F)F)on2)s1 [Compound 36, N-Hydroxy-5-[5-(trifluoromethyl)-1,2-oxazol-3-yl]thiophene-2-sulfonamide]	51
O=S(=O)(NO)C1=C(Cl)NC2SC=CN12 (stereo not shown) [Compound 37, 6-Chloro-N-hydroxy-7H,7aH-imidazo[2,1-b][1,3]thiazole-5-sulfonamide]	51
O=S(=O)(NO)c1ccc(-c2ccno2)s1 [Compound 38, N-Hydroxy-5-(1,2-oxazol-5-yl)thiophene-2-sulfonamide]	25
O=S(=O)(NO)c1ccc(-c2cnco2)s1 [Compound 40, N-Hydroxy-5-(1,3-oxazol-5-yl)thiophene-2-sulfonamide]	50
Cc1cc(S(=O)(=O)NO)c(C)s1 [Compound 41, N-Hydroxy-2,5-dimethylthiophene-3-sulfonamide]	13
COC(=O)c1cc(C)c(S(=O)(=O)NO)s1 [Compound 42, Methyl 5-(hydroxysulfamoyl)-4-methylthiophene-2-carboxylate]	91
O=S(=O)(NO)c1ccc(S(=O)(=O)c2ccccc2)s1 [Compound 43, 5-(Benzenesulfonyl)-N-hydroxythiophene-2-sulfonamide]	82
O=S(=O)(NO)c1ccc(-c2ccon2)s1 [Compound 44, N-Hydroxy-5-(1,2-oxazol-3-yl)thiophene-2-sulfonamide]	81
O=S(=O)(NO)c1ccc(Br)s1 [Compound 45, 5-Bromo-N-hydroxythiophene-2-sulfonamide]	76
O=S(=O)(NO)c1sc(Br)cc1Br [Compound 46, 3,5-Dibromo-N-hydroxythiophene-2-sulfonamide]	95
O=S(=O)(NO)c1sccc1Cl [Compound 48, 3-Chloro-N-hydroxythiophene-2-sulfonamide]	82
O=S(=O)(NO)c1c(Cl)ccc2nonc12 [Compound 50, 5-Chloro-N-hydroxy-2,1,3-benzoxadiazole-4-sulfonamide]	31
COc1ccc(S(=O)(=O)NO)cc1OC [Compound 52, N-Hydroxy-3,4-dimethoxybenzene-1-sulfonamide]	11
Cc1cc(C)c(C)c(S(=O)(=O)NO)c1C [Compound 53, N-Hydroxy-2,3,5,6-tetramethylbenzene-1-sulfonamide]	70
O=S(=O)(NO)c1cc(C(F)(F)F)cc(C(F)(F)F)c1 [Compound 54, N-Hydroxy-3,5-bis(trifluoromethyl)benzene-1-sulfonamide]	2
COC(=O)c1ccc(Cl)c(S(=O)(=O)NO)c1 [Compound 55, Methyl 4-chloro-3-(hydroxysulfamoyl)benzoate]	87
O=C(c1ccc(Cl)c(S(=O)(=O)NO)c1)N1CCC(=NO)CC1 [Compound 58, 2-Chloro-N-hydroxy-5-[4-(hydroxyimino)piperidine-1-carbonyl]benzene-1-sulfonamide]	92
COCCN(C)C(=O)c1ccc(Cl)c(S(=O)(=O)NO)c1 [Compound 59, 4-Chloro-3-(hydroxysulfamoyl)-N-(2-methoxyethyl)-N-methylbenzamide]	82
O=C(O)c1cc(S(=O)(=O)NO)ccc1O [Compound 60, 2-Hydroxy-5-(hydroxysulfamoyl)benzoic acid]	9
